In the CATMoS acute toxicity set (Mansouri et al. 2021):

Assay: GHS categories as the set defines them, by LD50: 1 up to 5, 2 up to 50, 3 up to 300, 4 up to 2000, 5 above 2000 mg/kg
Settings: rat; in vivo; po

| SMILES | GHS category |
| --- | --- |
| Cc1cc2cccnc2n(-c2cccc(C(F)(F)F)c2)c1=O | 3 |
| CCC(=O)OCC(C)(C)OC(C)C1CCCC(C)(C)C1 (centres undefined) | 5 |
| O=C(O)CNC(=O)c1ccco1 | 5 |
| CNC(=O)C(=NNc1cccc(C)c1)C(C)=O | 5 |
| CCC1CCC(=O)O1 (centres undefined) | 5 |
| CCCS(=O)(=O)Nc1ccc(F)c(C(=O)O)c1F | 5 |
| CC(=O)Nc1ccc2cc(S(=O)(=O)O)c(N=Nc3ccc(S(=O)(=O)CCOS(=O)(=O)O)cc3)c(O)c2c1 | 5 |
| Nc1nc(=O)c2c(CCc3ccc(C(=O)O)cc3)c[nH]c2[nH]1 | 5 |
| CCOC(=O)CCC(C)=O | 5 |
| NC(=O)[C@@H]1C[C@]2(NC(=O)NC2=O)c2cc(F)ccc2O1 | 5 |
| CCCCCC(CCC)COC(=O)c1ccccc1C(=O)OCC(CCC)CCCCC (centres undefined) | 5 |
| CC(C)CC1(C)OCC(CO)O1 (centres undefined) | 5 |
| CN(C)C(=O)c1cc(C(=O)N(C)C)c2c(n1)C(=O)C(=O)c1cc(C(=O)N(C)C)[nH]c1-2 | 5 |
| CC(C)CCOCCc1ccccc1 | 5 |
| O=C(O)CNC(c1ccccc1)c1ccccc1 | 4 |
| CCCCCCCCOC(=O)c1ccc(C(=O)OCCCCCCCC)c(C(=O)OCCCCCCCC)c1 | 5 |
| CC1Oc2cc(C(=O)C=Cc3ccc(O)cc3)ccc2N(C)C1=O (centres undefined) | 5 |
| CCCCCCCCCCCCCCCCCCOP(=O)(O)O | 5 |
| Nc1nc(=O)[nH]cc1F | 5 |
| O=S(=O)(O)c1ccc2c(c1)Nc1cc3nc4ccc(S(=O)(=O)O)cc4nc3cc1N2 | 5 |
| CN(C(=O)COc1nc2ccccc2s1)c1ccccc1 | 5 |
| CCC(=O)N[C@H]1CCc2nc(N)sc2C1 | 5 |
| CC1(C)S[C@@H]2[C@H](NC(=O)[C@H](NC(=O)N3CCN(S(C)(=O)=O)C3=O)c3ccccc3)C(=O)N2[C@H]1C(=O)O | 5 |
| CN1C(=O)CCc2c(OCC(O)CN3CCC(Cc4ccccc4)CC3)cccc21 (centres undefined) | 4 |
| CCCCOC(=O)c1ccc(-n2nc(OCCN(C)C)c3ccccc32)cc1 | 4 |
| CC(=O)O[C@]1(C(C)=O)CC[C@H]2[C@@H]3C=C(Cl)C4=CC(=O)[C@@H]5C[C@@H]5[C@]4(C)[C@H]3CC[C@@]21C | 5 |

| SMILES | GHS category |
| --- | --- |
| CCCCNC(=O)CC[C@H](NC(=O)C(CC)CCCC)C(=O)NCCCC (some centres undefined) | 5 |
| CCOc1c(OC)cccc1-c1nc(=O)c2cc(C(=O)O)ccc2[nH]1 | 4 |
| NCC(O)CCl (centres undefined) | 4 |
| COc1ccc2c(c1)CCN(c1ccccc1)C2c1ccccc1 (centres undefined) | 4 |
| C=CCN(C(C)=O)C(=O)Oc1cccc2c1OC(C)(C)O2 | 4 |
| CS(=O)(=O)c1ccc([C@@H](O)[C@@H](CO)NC(=O)C(Cl)Cl)cc1 | 5 |
| CCN1C(=CC=CC=Cc2sc3ccccc3[n+]2CC)Sc2ccccc21 | 3 |
| O=P(Oc1ccccc1)(Oc1ccccc1)Oc1cccc(OP(=O)(Oc2ccccc2)Oc2ccccc2)c1 | 5 |
| CN1CC(CO)CC2c3cccc4c3c(cn4C(C)(C)C)CC21 (centres undefined) | 4 |
| CCCCC(CC)CNc1ccc(NCC(CC)CCCC)c2c1C(=O)c1c(O)ccc(O)c1C2=O (centres undefined) | 5 |
| Nc1cc(C(=O)O)ccc1Cl | 5 |
| C[C@H]1CO[C@@](Cn2cncn2)(c2cc3cc(Cl)cc(Cl)c3o2)O1 | 4 |
| CCC(C(=O)Oc1cc(C)ccc1C(C)C)c1ccc(-c2ccccc2)cc1 (centres undefined) | 5 |
| C[C@@]12CC[C@@H]3[C@H](CC=C4C[C@H](OS(=O)(=O)O)CC[C@]43C)[C@H]1CCC2=O (racemic) | 5 |
| CC(=O)Nc1cc(NS(=O)(=O)C(F)(F)F)c(C)cc1C | 5 |
| CC(=O)C[N+]1(CC(N)=O)C(=O)Sc2ccc(Cl)cc21 (centres undefined) | 5 |
| O=C1CC(N2C(=O)c3ccccc3C2=O)CC(=O)N1 | 5 |
| CCCCOC(=O)c1ccccc1N=Nc1c(O)c(C(=O)Nc2ccc3[nH]c(=O)[nH]c3c2)cc2ccccc12 | 5 |
| CCC(C)C(=O)OCCc1ccccc1 (centres undefined) | 5 |
| CON=C(C(=O)N[C@@H]1C(=O)N2C(C(=O)OC(C)OC(C)=O)=C(COC(N)=O)CS[C@H]12)c1ccco1 (some centres undefined) | 5 |
| CCO[Si](CCCCl)(OCC)OCC | 5 |
| CCCN(C=Nc1cccc(=O)[nH]1)CCC | 5 |
| CC1=CCC(C(C)(C)OC(=O)C(C)C)CC1 (centres undefined) | 5 |
| Cc1cc(C)[n+]([N-]C(=O)c2ccc(Cl)c(S(N)(=O)=O)c2)c(C)c1 | 5 |
| CC(Br)(CBr)COc1c(Br)cc(C(C)(C)c2cc(Br)c(OCC(C)(Br)CBr)c(Br)c2)cc1Br (centres undefined) | 5 |
| COc1ccc2c(c1)CCN(c1ccccc1)C2c1cccc(Cl)c1 (centres undefined) | 4 |

| SMILES | GHS category |
| --- | --- |
| CN1C(C(=O)Nc2ccccn2)=C(OC(=O)C(C)(C)C)c2sccc2S1(=O)=O | 2 |
| NP(N)(=O)Nc1ccccc1[N+](=O)[O-] | 5 |
| COc1c(O)cc2c(c1O)C1OC(CO)C(O)C(O)C1OC2=O (centres undefined) | 5 |
| O=[N+]([O-])c1c(Cl)cccc1-c1c[nH]cc1Cl | 5 |
| CC(C)OC(=O)CCC(=O)OC(C)C | 5 |
| O=C1CCc2ccc(OCC(O)CN3CCC(c4ccccc4)CC3)cc2N1 (centres undefined) | 4 |
| CCCCCCCCCCCCCCCCCCCCCCc1ccccc1 | 5 |
| CN1C(=O)CCc2ccc(OCCCN3CCC(Cc4ccccc4)CC3)cc21 | 4 |
| CSC(C)=NOC(=O)N(C)SN(C)C(=O)Oc1ccccc1OC(=O)N(C)SN(C)C(=O)ON=C(C)SC | 4 |
| CCOC(=O)C(C)(C)Oc1ccc2c(c1)C=C(n1ccnc1)CC2 | 5 |
| CCC(C)(C)NC(=O)c1cnc2cccc(C)n2c1=O | 3 |
| CC1(C)S[C@@H]2[C@H](NC(=O)COc3ccccc3)C(=O)N2[C@H]1C(=O)O | 4 |
| CON=CC1=CCCN(C(=O)Oc2ccc(C(C)C)cc2)C1 | 4 |
| Oc1c(Br)ccc2c(O)c(Br)ccc12 | 5 |
| O=C(O)CN(CCCN(C(=O)O)C(=O)O)C(=O)O | 5 |
| Cc1nc(N2CCOCC2)sc1C(=O)Nc1ccccc1 | 4 |
| CCO[Si](CN(CC)CC)(OCC)OCC | 5 |
| CCCCCC(O)CCO (centres undefined) | 5 |
| CCCCCCCCCCCCC1=C(OC(C)=O)C(=O)c2ccccc2C1=O | 5 |
| CCCCC(CC)CN1CN(CC(CC)CCCC)CC(C)(N)C1 (centres undefined) | 4 |
| COCc1cnc(C2=NC(C)(C(C)C)C(=O)N2)c(C(=O)O)c1 (centres undefined) | 5 |
| O=C(O)CCCCCCCC(=O)O | 5 |
| O=c1[nH]c2ccc([N+](=O)[O-])cc2[nH]1 | 5 |
| CSc1nc2cc(Cl)c(Oc3cccc(Cl)c3Cl)cc2[nH]1 | 5 |
| COc1ccc2c(c1)CCN(c1ccccc1)C2c1cccc(Br)c1 (centres undefined) | 4 |
| CC1=CCC(C=CC(C)C(C)O)C1(C)C (centres undefined) | 4 |

| SMILES | GHS category |
| --- | --- |
| CCO[Si](CN1CCOCC1)(OCC)OCC | 5 |
| CCC(=O)OC(C)(C)Cc1ccccc1 | 5 |
| O=C1NC(=O)C(N=NC2C(=O)NC(=O)NC2=O)C(=O)N1 | 5 |
| Cc1ccn2nc(S(=O)(=O)Nc3c(F)cccc3F)nc2n1 | 5 |
| Cc1cc(=O)[nH]c2cc(OCCCN3CCC(Cc4ccccc4)CC3)ccc12 | 4 |
| CN(C(=O)CC(=O)N(C)c1c(I)c(C(=O)NC(CO)C(O)CO)c(I)c(C(=O)NC(CO)C(O)CO)c1I)c1c(I)c(C(=O)NC(CO)C(O)CO)c(I)c(C(=O)NC(CO)C(O)CO)c1I (centres undefined) | 5 |
| COc1ncc(F)c2nc(S(=O)(=O)Nc3c(F)cccc3F)nn12 | 5 |
| N[C@@H]1CONC1=O | 5 |
| CCOc1ccc(C2(C(=O)OC(C#N)c3cccc(Oc4ccccc4)c3)CC2(Cl)Cl)cc1 (centres undefined) | 5 |
| CCOP(=O)(CN(CCO)CCO)OCC | 5 |
| CCNC(=O)[C@@H]1CCCN1C(=O)[C@H](CCCN=C(N)N)NC(=O)[C@H](CC(C)C)NC(=O)[C@@H](COC(C)(C)C)NC(=O)[C@H](Cc1ccc(O)cc1)NC(=O)[C@H](CO)NC(=O)[C@H](Cc1c[nH]c2ccccc12)NC(=O)[C@H](Cc1cnc[nH]1)NC(=O)[C@@H]1CCC(=O)N1 | 4 |
| CC(C)C(=O)OCC=Cc1ccccc1 | 5 |
| CCOCC1COC(Cn2cncn2)(c2cc3cc(Cl)cc(Cl)c3o2)O1 (centres undefined) | 4 |
| O=S(=O)(O)CCN1CCN(CCO)CC1 | 5 |
| CC(C)(c1ccc(OP(=O)(Oc2ccccc2)Oc2ccccc2)cc1)c1ccc(OP(=O)(Oc2ccccc2)Oc2ccccc2)cc1 | 5 |
| CC(CCO)CC(C)(C)C (centres undefined) | 5 |
| CC(=O)C(N=Nc1ccc(C(=O)Nc2ccc(C(N)=O)cc2)cc1)C(=O)Nc1ccc2[nH]c(=O)[nH]c2c1 (centres undefined) | 5 |
| COc1ccc(C(=O)Nc2ccccc2)cc1N | 5 |
| COc1ccc2c(c1)CCN(c1ccccc1)C2c1ccccc1F (centres undefined) | 4 |
| CCC(=O)O[C@@H]1C=C2CCC3C(CCC4(C)C3CC[C@@H]4OC(=O)CC)C2CC1 (some centres undefined) | 5 |
| CCCC(=O)N(C)C(=O)Oc1cccc2c1OCO2 | 4 |
| C[C@@H]1CC[C@@]2(OC1)O[C@H]1[C@@H](O)[C@H]3[C@@H]4CC[C@H]5C[C@@H](O[C@@H]6O[C@H](CO)[C@H](O[C@@H]7O[C@H](CO)[C@@H](O)[C@H](O[C@@H]8OC[C@@H](O)[C@H](O)[C@H]8O)[C@H]7O[C@@H]7O[C@H](CO)[C@@H](O)[C@H](O[C@@H]8O[C@H](CO)[C@@H](O)[C@H](O)[C@H]8O)[C@H]7O)[C@H](O)[C@H]6O)[C@H](O)C[C@]5(C)[C@H]4CC[C@]3(C)[C@H]1[C@@H]2C | 3 |
| Cc1ccc2oc(C=Cc3nc4cc(C)ccc4o3)nc2c1 | 5 |
| Cc1ccc(S(=O)(=O)NC(=O)Nc2cccc(OS(=O)(=O)c3ccc(C)cc3)c2)cc1 | 5 |
| CC1Cc2ccccc2N1NC(=O)c1ccc(Cl)c(S(N)(=O)=O)c1 (centres undefined) | 5 |
| CC1COCc2cc3c(cc21)C(C)(C)C(C)C3(C)C (centres undefined) | 5 |
